Values of other authors, collected in patent US20160243146A1, “LEVIA : A New Injectable Parasiticidal Veterinary Formulation of Levamisole HCl and Ivermectin Solution” (priority 2015, published 2016).

Assays:
[1] = dissolved in propylene glycol solvent

For Ivermectin, the solubility in water (room temperature) is listed as “about 0.005 mg per ml”, the stability in water (water) is listed as “unstable in water” and the “period of release into the blood” value [1] is listed as “up to 14 days”.
